From a melting point compilation (Tetko et al.; mined from patent text by program, amines drawn as free bases though some values may be those of a salt)

Row | Compound | melting point [°C]
1 | COc1cccc(OC)c1C=CC(=O)c1ccccc1 | 54.9 to 55.8
2 | CC(C)(C)C(=O)OCc1nc(-c2cc(C(C)(C)C)c(O)c(C(C)(C)C)c2)cs1 | 115 to 116
3 | O=C(OCc1ccccc1)[C@H](O)CCc1ccccc1 | 59 to 60
4 | CCn1c(COC(=O)NC(=O)c2ccc(Cl)cc2)nc(C(C)C)c1Sc1cc(Cl)cc(Cl)c1 | 82 to 83
5 | O=C(O)C1CCC2C(=O)OC(=O)C2C1 (stereo not drawn) | 250
6 | CCc1cc2oc(=O)c(C#N)c(C)c2cc1CC | 169
7 | C=C1C(=O)c2ccccc2OC1c1cccc([N+](=O)[O-])c1 (stereo not drawn) | 131 to 132
8 | COC(=O)c1cccc(Sc2ccccc2)c1S(C)(=O)=O | 151
9 | CCN(CCCCCCCCN(CC)S(=O)(=O)c1ccc(C)cc1)S(=O)(=O)c1ccc(C)cc1 | 112 to 113
10 | CC[C@@H]1N(c2ccc(C#N)c(Cl)c2)C(=O)C[C@@]1(O)C1CC1 | 128 to 132
11 | CCN(CC)C(=O)c1cc2ccsc2c(-c2ccccc2Cl)n1 | 86
12 | CC(C)=CCN1Cc2c(Cl)ccc([N+](=O)[O-])c2NC[C@@H]1C | 60 to 62
13 | CCOC(=O)c1[nH]c(C)c(CC)c1CC | 76 to 77
14 | CSc1c(C#N)nn(-c2c(Cl)cc(C(F)(F)F)cc2Cl)c1N(C)C | 118 to 119
15 | CC(=O)NS(=O)(=O)c1ccc2ccc(Oc3c(Cl)cc(C(F)(F)F)cc3Cl)cc2c1 | 137
16 | NC(=O)c1cc2c(cc1OCC1CCCCC1)CCCCC2N (stereo not drawn) | 170 to 172
17 | Clc1ccc(N2CC(c3ccccc3)=C(c3ccccc3)C2)cc1 | 158
18 | CCNC(=O)C1=CSC(Cl)N1[Si](C)(C)C (stereo not drawn) | 101 to 103
19 | Cc1sc(C(N)=O)c2c1-c1c(cnn1CC(F)(F)F)CC2 | 144 to 145
20 | CNC(=S)C(CN1CCOCC1)(OC)c1ccccn1 (stereo not drawn) | 128 to 132
21 | CSc1cc(C(=O)O)ccc1C | 175
22 | Cc1nc(N)nc(N)c1CCCc1ccccc1C(F)(F)F | 151 to 158
23 | O=C(Oc1ccc(Cl)cc1)c1ncn2c1[C@@H]1CCCN1C(=O)c1c(Cl)cccc1-2 | 241 to 242
24 | CC(=O)NC1C(NC(=NC(=O)OC(C)(C)C)NC(=O)OC(C)(C)C)C=C(C(=O)OCCCO)OC1C(O)C1COC(C)(C)O1 (stereo not drawn) | 86 to 88

Row | Compound | melting point [°C]
25 | Cc1sc(C=O)cc1Br | 58
26 | N#CC(C#N)=C1N(CCCN2CCCCC2)CCN1C1CCN(C(=O)C2CC2)CC1 | 131 to 133
27 | CC(Sc1ccccc1)n1cc(C2=C(c3cn(C(C)Sc4ccccc4)c4ccccc34)C(=O)NC2=O)c2ccccc21 (stereo not drawn) | 102 to 105
28 | Cc1ccc([N+](=O)[O-])cc1S(=O)(=O)N(C)C | 72 to 74
29 | Cc1csc2[nH]cc(C#N)c(=O)c12 | 285
30 | NC(=O)c1cn2c(ccc3ccccc32)n1 | 270 to 271
31 | O=c1[nH]c2sc(Br)c(Br)c2[nH]c1=O | > 300
32 | O=C(NN1CCN(C(=O)Cl)C1=O)OCc1ccccc1 | 102 to 105
33 | CNC(=O)c1ccccc1Nc1nc(Nc2cc3c(cc2OC)N(C)C(=O)OCC3)ncc1C(F)(F)F | 210 to 212
34 | Cc1ccc(-n2c(-c3c4ccccc4cc4ccccc34)ccc2-c2c3ccccc3cc3ccccc23)cc1 | 262 to 263
35 | N#CC1CN1C(=O)CNC=O (stereo not drawn) | 51 to 56
36 | Cn1cc(C2=C(c3csc4ccccc34)C(=O)NC2=O)c2ccccc21 | 238 to 241
37 | CCCCCCCCCCCCc1ccccc1C(SCC(=O)O)C(=O)O (stereo not drawn) | 65 to 66
38 | CS(=O)c1csc(NC(=O)c2ccccc2O)n1 (stereo not drawn) | 240
39 | FC(F)(F)c1cccc2c1[nH]c1c2ccc2cc[nH]c21 | > 250
40 | Nc1sc(-c2ccc(Cl)s2)c(CN(C2CCCCC2)C2CCCCC2)c1C(=O)c1ccc(Cl)cc1 | 195 to 197
41 | O=C1O[C@@H](CO)CN1c1ccc(C2=CCSCC2)c(F)c1 | 119 to 122
42 | C=CCOC(=O)c1cccc(NC(=O)NCC(=O)N(CC(=O)OC(C)(C)C)c2ccccc2C(=O)c2ccccc2)c1 | 105 to 107
43 | COc1cc(Cl)cnc1OCC#Cc1ccc(Cl)nc1 | 94
44 | O=C(O)Cc1ccc(NC(=O)C(COC2CCCCO2)NS(=O)(=O)c2ccc(Cl)c([N+](=O)[O-])c2)cc1 (racemic) | 131 to 140
45 | Cc1cc2nc(NC(=O)C(C)(C)C)nc(Cl)c2[nH]1 | 162 to 163
46 | CCCC(=O)NNC(=O)c1ccncc1 | 142
47 | O=C(CCCCl)Nc1ccccc1 | 64 to 66
48 | COC(=O)c1ccc(Cl)c(NN)c1 | 218 to 220

Next, values leading:

Row | melting point [°C] | Compound
49 | 92 | N#CCOc1cccc(CCNS(=O)(=O)c2ccc(Cl)cc2)c1
50 | 150 | CCCc1c(C(=O)O)c(=O)cc(-c2ccccc2)n1C
51 | 83.5 to 88.5 | C[C@H]1CCCN(CCCOc2ccc(-c3nc4cccnc4c(=O)n3C)cc2)C1
52 | 234 to 238 | Cc1ccc(-c2[nH]c(C(F)(F)F)nc2-c2ccc(S(C)(=O)=O)cc2)cc1
53 | 65 to 66.5 | CCCCc1ccc2c(c1)Cc1ccccc1-2
54 | 211 to 212 | O=C1NC(=O)c2ccc(N3CCCCC3)cc2/C1=C/Nc1ccc(CN2CCCCC2)cc1
55 | 137 to 138 | COC(=O)COc1ccc(C(=O)CC2CCN(c3ccncc3)CC2)cc1
56 | 212 | CCOc1cc(-c2cc(C(F)(F)F)n3cnc(-c4ccncc4)c3n2)ccc1C(F)(F)F
57 | 285 to 287 | C[C@@H]1CN(c2ccc3nc(-c4ccc(F)cc4)c(-c4ccnc5[nH]ccc45)n3n2)CCN1
58 | 197 to 200 | CCCCc1nc2c(N)nc3ccccc3c2n1CCCCNS(=O)(=O)Cc1ccccc1
59 | 190 to 191 | Cc1ccc(CS(=O)c2nc3cc4c(cc3[nH]2)CCC4)nc1 (stereo not drawn)
60 | 117 to 120 | Cc1ccc2c3c(ccc2n1)OC[C@H](CNCCCc1csc2ccc(F)cc12)O3
61 | 261 to 263 | COc1cc(C(=O)Nc2nnn[nH]2)nc(-c2ccc(N(C)C)cc2)c1
62 | 236 to 237 | CN1C(=O)c2cncnc2Nc2ccccc21
63 | 168 to 169 | COc1ccc(-c2cc3nc(N4CCCCC4)c4ccccc4c3nn2)cc1
64 | 99 to 101 | O=C(O)CCCCCc1nn(-c2ccc(Cl)cc2)c2c1CCC2
65 | 148 to 150 | Cc1cccc(C(=O)NO)c1N(C)S(=O)(=O)c1ccc(OCCCNC(=O)c2cc3ccccc3o2)cc1
66 | 114 to 115 | Cc1ccccc1C(=O)Nc1cccc(OCc2ccccc2)c1
67 | > 300 | CC1SC(=O)NN=C1c1ccc2c(c1)C(=NNC(=O)c1ccccn1)C(=O)N2 (stereo not drawn)
68 | 238 to 240 | Cn1c(-c2ccccc2)cc(O)c(C(=N)c2ccccc2)c1=O
69 | 55 to 59 | COc1ccc(-c2ccc(C(C)C=O)cc2F)cc1 (stereo not drawn)
70 | 84.5 to 86.5 | COC(=O)c1ccccc1-c1noc(-c2cccc(C(F)(F)F)c2)n1
71 | 159 to 162 | O=C(CN1CCN(CC2CCn3c(nc4ccccc43)S2)CC1)N1CCCC1 (stereo not drawn)
72 | 207 to 209 | CCn1c(=O)c(-c2c(Cl)cccc2Cl)cc2cnc(N)nc21
73 | 155 to 158 | O=C(O)CCC(=O)N(CCCOc1ccc(C(=O)O)cc1)c1ccc(Cl)cc1

Row | melting point [°C] | Compound
74 | 255 to 257 | COc1cc(C(=O)NS(=O)(=O)c2ccccc2C)ccc1Cc1cn(C)c2ccc(C(=O)O)cc12
75 | 175 to 176 | O=c1c2sccc2nc(CNc2ccccc2F)n1-c1ccccc1Cl
76 | 248 | O=C1Nc2ccccc2SC(c2ccccc2)C1CO (stereo not drawn)
77 | 286 to 287 | COc1ccc(S(=O)(=O)c2cc3c(cc2OC)OC(C)(C)[C@@H](O)[C@@H]3N2CCCC2=O)cc1 (relative stereo)
78 | 65 to 66 | CCOC(=O)/C=C(/c1ccc(OC)cc1)c1cc(F)cc(F)c1
79 | 138 | CC1C(=O)N(c2ccc(Oc3ccccc3)cc2)C(=S)N1Cc1ccccc1 (stereo not drawn)
80 | 150 to 160 | COC(=O)C1Cc2c([nH]c3ccccc23)C(c2cccc(Cl)c2)N1 (stereo not drawn)
81 | 144 to 146 | CC(C)(C)OC(=O)Nc1cc(N2CCC(OCCOC3CCCCO3)CC2)c(-c2ccc(F)cc2)cc1[N+](=O)[O-] (racemic)
82 | 194 to 195 | COc1cc2c(cc1OC)[C@@H]1CN(C)CC[C@@H]1N=C2c1ccc([N+](=O)[O-])cc1 (relative stereo)
83 | 169 to 170 | O=C1Nc2ccccc2C1C(=O)c1cccnc1 (stereo not drawn)
84 | 138 | CC(=O)N1CCC(CNc2nc3ccccc3s2)CC1
85 | 156 | C=CCOc1cc(-c2cc(=O)c3c(OC)cc(OCC4=COC(C)(C)O4)cc3o2)ccc1OC
86 | 110 to 112 | Cc1c2n(c(=O)c3c(O)cccc13)CCCS2
87 | 264 to 266 | CNC(=O)c1ccc(N2CCN(Cc3cnc4c(c3)[nH]c(=O)n3cccc43)CC2)c(C)c1
88 | 105 to 107 | CCCCC1(CCCC)CS(=O)(=O)c2ccc(N(C)C)cc2C(c2ccc(OCc3cccnc3CCC(=O)O)cc2)C1O (stereo not drawn)
89 | 125 to 127 | COCc1c(C=O)ncc2c1c1c(OCc3ccccc3)cccc1n2S(=O)(=O)c1ccc(C)cc1
90 | 228 | COc1cc(N)c(Cl)cc1C(=O)NC1CCN(CCNC(=O)C(O)c2ccccc2)CC1OC (stereo not drawn)
91 | 212 to 215 | CCOC(=O)c1ncc2[nH]c3ccc(C(=O)OCc4ccccc4)cc3c2c1CC
92 | 165 to 166 | c1ccc(-c2nc3ccc(N4CCC(N5CCCC5)CC4)nn3c2-c2ccncc2)cc1
93 | 115 to 117 | CN1CCC(c2c[nH]c3ccc(NC(=N)c4cccs4)cc23)C(F)C1 (stereo not drawn)
94 | 133 to 135 | O=C(Nc1ccc(N2CCN(C(=O)C(O)c3ccc(O)cc3Cl)CC2)nc1)Nc1ccccc1F (stereo not drawn)
95 | 139 to 142 | COc1cccc(NC(=O)NC2N=C(C(C)C)c3ccccc3N(CC(=O)N3CC4CCC(CC4)C3)C2=O)c1 (stereo not drawn)
96 | 201 to 205 | CNCc1ccc(C2CCN(c3c(F)c(N)c4c(=O)c(C(=O)O)cn(C5CC5)c4c3F)C2)cc1 (stereo not drawn)
97 | 154 to 156 | CCOC(=O)C1=C(C)NC(=O)N(CCCN(C)Cc2ccccc2)C1c1cccc(Cl)c1Cl (stereo not drawn)
98 | 123 to 124 | CC(=O)Nc1ccccc1-c1ccc(F)cc1
